Assays:
[1] = system: IMAB362; assay: Peptide ELISA, biotinylated peptides on streptavidin plates; type: binding
Procedure: For the detection of IMAB362, the CLDN18.2 mimicking peptides were immobilized on streptavidin plates (Nunc) in a concentration of 0.75 μg/ml in PBS buffer for 1 hour at 37° C. Subsequently, the plate was washed three times with washing buffer (0.01% Tween-20 in PBS buffer) before it was blocked with 3% BSA in PBS overnight at 4° C. To detect IMAB362, the blocked plate was washed again three times with washing buffer followed by the addition of IMAB362 and incubation for 30 min at 37° C. After another washing step, it was incubated with an alkaline phosphatase conjugated anti-human Fc antibody (Jackson Immuno Research) for additional 30 min at 37° C. Finally, the plate was washed again before being incubated with 1.5 mg/ml of the substrate PNPP (para-nitrophenyl phosphate) in appropriate substrate buffer (1 M Diethanolamine, 0.05 mM MgCl2, 0.01% sodium azide, pH 9.8) for 30 min at RT in the dark. 3 M KOH was used to stop the enzymatic reaction. Absorbance was measured with a microplate reader (Infinite M200, Tecan). For dual wavelength analysis, 405 nm was chosen as measurement wavelength and 492 nm as reference wavelength. Absorbance values were calculated by subtraction of the measured values for the reference wavelength and for the measurement wavelength. Calculation of apparent KD values was done by fitting the data with Sigma Plot 10 using a two-site saturation binding model. […]

[2] = system: IMAB362; assay: Peptide microarray incubation with IMAB362; type: binding; settings: IMAB362 1 μg/ml; percentage of fluorescence assay signal of the hit peptide
Procedure: Peptides were synthesized and printed on peptidemicroarray slides essentially as described previously [Funkner, A. et al., J. Mol. Biol. 2013, 425, 1340-1362]. In brief, the peptides were synthesized using SPOT synthesis [Wenschuh, H. et al., Biopolymers 2000, 55, 188-206] cleaved from the solid support and cyclized (50% DMSO, PBS buffer pH 7-8, RT, 16 hours). Subsequently, all peptides were chemoselectively immobilized on functionalized glass slides as described earlier [Funkner, A. et al., J. Mol. Biol. 2013, 425, 1340-1362]. Each peptide was deposited on the microarray in triplicates.
The microarrays were incubated with 1.0 or 0.1 μg/ml IMAB362 in an HS 4800 microarray processing station (Tecan) for two hours at 30° C., followed by incubation with 1.0 μg/ml fluorescently labelled secondary antibody (Alexa647 anti-human Fc antibody; Jackson Immuno Research). Washing steps were performed prior every incubation step with 0.1% Tween-20 in 1×TBS. After the final incubation step the microarrays were washed (0.05% Tween-20 in 0.1×SSC) and dried in a stream of nitrogen. Each microarray was scanned using a GenePix Autoloader 4200AL (Molecular Devices, Pixel size: 10 μm). Signal intensities were evaluated using GenePix Pro 7.0 analysis software (Molecular Devices). For each peptide, the mean of the three triplicates was calculated.
Peptide microarrays were used for structure-activity-relationship (SAR) analysis and optimization of peptide binding affinity to IMAB362. For assay setup three variants of each cyclic hit peptide (sequences 1, 2 and 3, Table 1) were prepared differing in a) the immobilization site, b) the linker nature and c) the degree of conformational restriction (cyclic vs. linear). All peptides were chemically synthesized in a stepwise fashion from the C- to the N-terminus by the high-throughput SPOT synthesis approach [Wenschuh, H. et al., Biopolymers 2000, 55, 188-206] applying a cellulose membrane as solid support. After cleavage and isolation, the peptides were cyclised through disulfide formation between two internal Cys residues and immobilized to the microarray. Covalent attachment to the microarray was performed through a reactive moiety on either the N- or C-terminus of the peptides allowing chemoselective and directed immobilization through both ends of the peptides. Subsequently, peptide loaded microarrays were incubated with 1.0 or 0.1 μg/ml IMAB362 followed by incubation with 1 μg/ml fluorescently labelled secondary antibody, scanning and data evaluation.
Target sequence in this assay (as listed by the source): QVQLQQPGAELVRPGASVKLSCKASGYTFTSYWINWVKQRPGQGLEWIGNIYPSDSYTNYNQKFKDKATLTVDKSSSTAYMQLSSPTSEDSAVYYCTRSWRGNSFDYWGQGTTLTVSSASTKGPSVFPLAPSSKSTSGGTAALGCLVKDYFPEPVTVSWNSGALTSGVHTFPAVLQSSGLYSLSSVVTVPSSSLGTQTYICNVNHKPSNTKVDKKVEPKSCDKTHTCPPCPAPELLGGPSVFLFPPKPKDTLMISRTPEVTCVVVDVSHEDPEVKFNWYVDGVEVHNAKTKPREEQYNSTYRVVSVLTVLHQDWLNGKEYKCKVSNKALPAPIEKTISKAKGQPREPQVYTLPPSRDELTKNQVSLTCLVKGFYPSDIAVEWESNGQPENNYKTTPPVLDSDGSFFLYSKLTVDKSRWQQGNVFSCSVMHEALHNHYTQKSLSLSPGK
Target sequence in this assay (as listed by the source): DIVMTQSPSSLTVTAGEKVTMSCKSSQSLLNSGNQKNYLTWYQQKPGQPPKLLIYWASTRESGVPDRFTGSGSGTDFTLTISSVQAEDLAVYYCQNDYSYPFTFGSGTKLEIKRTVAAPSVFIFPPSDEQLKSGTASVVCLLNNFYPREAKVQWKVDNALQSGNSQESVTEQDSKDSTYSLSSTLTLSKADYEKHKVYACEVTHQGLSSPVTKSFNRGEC

[3] = system: advanced gastro-esophageal cancer; settings: multiply pre-treated late-stage patients, single agent; cited from earlier work
[4] = In vivo pharmacokinetic analysis, serum measured by peptide ELISA with 2c mimotope peptide; settings: approximately 50 mg/kg intravenously, Balb/cJ mice
Procedure: After 8, 24, 48, 72, 144, 168 and 192 hrs, blood samples were taken from two mice of each group for serum preparation. The serum samples were to be measured in the linear range of the assay (approximately 0.3-300 ng/ml). […] An IMAB362 standard row in presence of murine Balb/cJ control serum was assayed in parallel (0-25 ng/ml). The standard raw data were fitted by linear regression to calculate the antibody concentration from the mouse samples at the respective timepoint. Before the pharmakokinetic analysis, a permission for the animal experiment was obtained from the relevant local authority.

Compound	% Affinity compared to hit peptide [2] [%]	also measured
CC(C)[C@@H]1NC(=O)CNC(=O)[C@@H]2CCCN2C(=O)[C@H](Cc2ccc(O)cc2)NC(=O)CNC(=O)[C@H](Cc2ccc(O)cc2)NC(=O)[C@H](Cc2c[nH]cn2)NC(=O)[C@@H](NC(=O)[C@H](C)NC(=O)CCC(=O)NCCCOCCOCCOCCCNC(=O)CCCC[C@@H]2SC[C@@H]3NC(=O)N[C@@H]32)CSSC[C@@H](C(=O)NCC(=O)O)NC1=O [Peptide 2c]		binding curves of IMAB362 to peptide when antibody diluted with human serum ([1]; up to 20% human serum, background signal slightly increased at high serum concentrations): looked similar; binding of IMAB362 to peptide in the presence of mouse serum ([1]; up to 20% mouse serum): almost not affected
ACHLGYPGRCG [Cyclopeptide-GGS-K(X) Seq. 3]	100	
ACHLGYPGRCG [X-Ttds-Linearpeptide Seq. 3]	0.1	
ACHLNYPGYCG [Cyclopeptide-GGS-K(X) Seq. 1]	100	
ACHLNYPGYCG [X-Ttds-Linearpeptide Seq. 1]	0	
ACHYSYPGVCG [Cyclopeptide-GGS-K(X) Seq. 2]	100	
ACHYSYPGVCG [X-Ttds-Linearpeptide Seq. 2]	0	
IMAB362: highly tumor-specific monoclonal IgG1 antibody directed against Claudin 18 isoform 2 (CLDN18.2)		antitumoral activity [3]: antitumoral activity; tolerability [3]: have shown tolerability; IMAB362 concentration in mice ([4]; after 8 hours): approximately 800 μg/ml; IMAB362 concentration in mice ([4]; at the end of the study (192 hrs)): approximately 350 μg/ml

Reference: US10858415B2, “Peptide mimotopes of claudin 18.2 and uses thereof” (BioNTech AG, priority 2014, dated 2020)
